Results reported in patent publication US12673028B2, “Therapeutic potential of cellulose-cyclodextrin-curcumin nanocrystals in the treatment of peripheral neuropathies” (UNIVERSITÉ DE LIMOGES, priority 2019, dated 2026).

Legend:
[1] = Bioavailability of curcumin in plasma; assay type: in vivo; settings: rat, 50 mg/kg
wild type Schwann cells = assay: In vitro H2O2-induced oxidative stress in Schwann cells; assay type: cell-based, rat; settings: H2O2 0.1 mM
Experimental: Schwann cells (SCs) were isolated from sciatic nerves of wild type (WT) male rats as well as 8-week-old CMT1A rats. SCs were cultured in SC culture medium (described in Caillaud et al., 2018): DMEM D-valine+2 mM glutamine (Gibco)+10% fetal calf serum (Gibco)+1% N2 supplement (Gibco)+20 μg/mL bovine pituitary extract+5 μM forskolin (Gibco)+100 U/mL penicillin/streptomycin (Gibco)+250 μg/mL fungizone (Gibco). SCs were identified using immunofluorescent labeling for S-100 protein.
To induce oxidative stress, SCs were subjected to H2O2 (0.1 mM) treatment for 8 hours. Total ROS and mitochondrial superoxide ions were assessed using the CellROX-Green reagent (Life Technologies GmbH) and the mitochondrial superoxide indicator MitoSOX Red (Life Technologies GmbH), respectively, according to the manufacturer's recommendations.

[2] = rats; cited from earlier work

SMILES: COc1cc(/C=C/C(=O)CC(=O)/C=C/c2ccc(O)c(OC)c2)ccc1O [Curcumin, curcumin]
- concentration at 0 h [1]: 0 ng/mL
- concentration at 1 h [1]: 24.9 ng/mL
- concentration at 2 h [1]: 4.3 ng/mL
- concentration at 8 h [1]: 0 ng/mL
- concentration at 12 h [1]: 0 ng/mL
- Mitochondrial membrane potential Δψm (Rho123) (wild type Schwann cells; 0.001 μM and 0.01 μM): did not reduce the H2O2-induced decrease in Δψm
- H2O2-induced mitochondrial ROS (MitoSOX) (wild type Schwann cells; 1 μM, 8 h pretreatment): restored values close to those of the control group
- H2O2-induced total ROS (CellROX) (wild type Schwann cells; 1 μM, 8 h pretreatment): reduced H2O2-induced total ROS
- H2O2-induced total ROS (CellROX) (wild type Schwann cells; 0.001, 0.01 and 10 μM, 8 h pretreatment): had no antioxidant effect
- Oral bioavailability [2]: approximately 1%
